Test results reported in patent US6563002B2, “Biscyclopropanecarboxamide compounds and pharmaceutical use thereof” (Ajinomoto Co., Inc., priority 1999, dated 2003).
Converted amounts (≈) assume the structure as drawn.

System: NF-kappa B
Experiment: Evaluation of inhibition of NF-kappa B: β-gal reporter in immortalized HUVEC induced with IL-1β
Assay type: cell-based
Details: Homo sapiens; HUVEC with NF-kappa B-driven β-gal reporter; 1 ng/ml IL-1β added 30 minutes after compound; β-gal activity determined 16 hours after; read-out: NFkB inhibiting activity IC50
Description: Evaluation of Inhibition of NF-Kappa B:
Cells used in the tests were obtained by stably introducing E. coli β-galactosidase (β-gal) genes into human normal umbilical vein endothelial cells (HUVEC) immortalized with SV 40 large T antigen. The genes were those driven by SV40 minimum promoter fused with 6 times of the NF-kappa B binding motif derived, from immunoglobulin kappa light-chain enhancer. The cells were subcultured in RPMI medium containing 10% of FBS, and spread on 96-well plates in a concentration of 1×10^4/well the day before the initiation of the experiments. The compound of the present invention was dissolved in DMSO in a suitable concentration and fed into the 96-well plates so that the final concentration of DMSO would be not higher than 1%. 30 minutes after the addition of the compound, NF-kappa B activity was induced with 1 ng/ml of IL-1β in each well. The β-gal activity was determined 16 hours after. The β-gal activity was determined with a chemical photogenic substrate (Galacton-Light-Plus: Boehringer Mannheim) according to the protocol attached to the reagent.

Structure (SMILES): CC1(C)CC1C(=O)Nc1ccc(C(O)c2ccccc2)cc1NC(=O)C1CC1(C)C (stereo not shown) [Example 2]
- IC50: 1 µg/mL (≈ 2.46 µM)
